Here are results for one molecule from patent US12171868B2 (Neurelis, Inc., priority 2022, dated 2024).

SMILES strings stand for the structures. Like-named read-outs stand apart in the source and are kept apart here.

The conditions of the series: saturated.

As to `Cc1cc2c(s1)Nc1ccccc1N=C2N1CCN(C)CC1` [Olanzapine, 2-methyl-4-(4-methyl-1-piperazinyl)-10H-thieno[2,3-b] [1,5]benzodiazepine], the Appearance result by setting is: (20% Dimethylacetamide/80% PEG 200) “Clear amber solution”; (40% Dimethylacetamide/60% PEG 200) “Clear amber solution”; (60% Dimethylacetamide/40% PEG 200) “Clear dark amber solution”; (80% Dimethylacetamide/20% PEG 200) “Clear dark amber solution”; (100% PEG 200) “Clear amber solution”.
